Read-outs that look alike come from different tables or passages of the source.
Assays:
polyamine transporter = assay: Polyamine transport inhibition (3H-spermidine uptake, MDA-MB-231 cells); format: cell-based, human
Description: The Ki values were determined using double reciprocal Lineweaver-Burke plot analyses.

[1] = tested on: cell growth in the presence of DFMO; assay: Growth inhibition assay in combination with DFMO; format: cell-based; details: for EC50: 144 h; on Ave EC50 Value: 0.5 µM SPD
Description: Medias were obtained from Mediatech, Inc. (Hemdon, Va.) and serums from Gibco BRL (Gaithersburg, Md.). 50 U/ml penicillin, 50 μg/ml streptomycin and 2 mM L-glutamine (all from Bio Whittaker, Walkersville, Md.) were included in all cultures. […] When cells were cultured with polyamines or ORI compounds, 1 mM aminoguanidine (AG; Sigma) was included to inhibit serum amine oxidase activity.

[2] = tested on: epidermal ornithine decarboxylase activity; details: mice, 0.5% BHT in food for two weeks, UV radiation; cited from earlier work
ODC = molecular target: T1, ODC (Rattus norvegicus, UniProt P09057); details: cited from earlier work
T1 construct: from tissue; host or cells: rat liver
T1 sequence (P09057 1-461): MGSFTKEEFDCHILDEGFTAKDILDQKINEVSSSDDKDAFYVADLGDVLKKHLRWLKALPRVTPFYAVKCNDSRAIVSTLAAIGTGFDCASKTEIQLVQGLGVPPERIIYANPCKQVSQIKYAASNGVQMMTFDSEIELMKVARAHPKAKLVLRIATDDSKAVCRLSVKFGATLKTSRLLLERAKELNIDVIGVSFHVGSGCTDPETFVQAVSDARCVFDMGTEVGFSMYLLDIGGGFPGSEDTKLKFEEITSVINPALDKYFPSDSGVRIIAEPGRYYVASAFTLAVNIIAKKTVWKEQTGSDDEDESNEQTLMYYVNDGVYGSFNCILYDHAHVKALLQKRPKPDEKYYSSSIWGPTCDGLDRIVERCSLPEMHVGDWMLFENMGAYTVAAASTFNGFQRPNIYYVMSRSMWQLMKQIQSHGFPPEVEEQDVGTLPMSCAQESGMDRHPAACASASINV

cultured follicles = details: in culture media: DFMO 500 μM; N-butyl-1,3-diaminopropane 50 μM; cited from earlier work
spermine synthase = molecular target: T2, spermine synthase (Homo sapiens, UniProt P52788); details: cited from earlier work
T2 sequence (P52788 1-366): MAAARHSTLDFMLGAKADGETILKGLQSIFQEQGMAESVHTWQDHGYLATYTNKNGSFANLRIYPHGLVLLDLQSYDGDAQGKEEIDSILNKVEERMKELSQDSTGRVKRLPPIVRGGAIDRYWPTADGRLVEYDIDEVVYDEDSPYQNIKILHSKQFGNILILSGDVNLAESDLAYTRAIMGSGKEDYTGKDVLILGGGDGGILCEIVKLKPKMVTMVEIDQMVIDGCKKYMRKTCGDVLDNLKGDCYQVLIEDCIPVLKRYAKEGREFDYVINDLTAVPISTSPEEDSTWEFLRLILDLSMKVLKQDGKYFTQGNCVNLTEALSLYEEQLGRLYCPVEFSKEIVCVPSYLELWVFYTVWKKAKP

ODC activity = details: at 4 to 5 hr after TPA treatment; cited from earlier work

SMILES: CCCCCCCCCCCCCCCC(=O)NCCCC[C@H](N)C(=O)NCCCNCCCCNCCCN [IA4]
- potency in transporter inhibition assay (polyamine transporter): demonstrated potency
- potency in cell growth inhibition assay [1]: demonstrated potency
- EC50 ([1]; read-out: Ave EC50 Value): 130 nM
- EC50 ([1]; read-out: Ave EC50 value): 130 nM

SMILES: Cc1cc(C(C)(C)C)c(O)c(C(C)(C)C)c1 [BHT, butylated hydroxytoluene]
- inhibition of measured ODC activity [2]: 70%

SMILES: NCCCC(N)(CCl)C(=O)O (stereo not shown) [—CH2Cl]
- t1/2 (ODC; Table 1, at 100 μM): t1/2 = 22 min
- Ki value (ODC; Table 1 substrate analogs, apparent dissociation constant, rat liver enzyme): No satd kinetics

SMILES: CCCCNCCCN [N-butyl-1,3-diaminopropane]
- effect on the growth of cultured follicles (cultured follicles): no effect
- Ki (spermine synthase): 11.9 nM

SMILES: CCCCCCCCCCCCCC(=O)O[C@@H]1[C@@H](C)[C@@]2(O)[C@@H](C=C(CO)C[C@]3(O)C(=O)C(C)=C[C@@H]23)[C@@H]2C(C)(C)[C@]12OC(C)=O [TPA, 12-O-tetradecanoyl-phorbol-13-acetate]
- peak ODC activity greater than control (ODC activity): 230 fold

— patent US7432302B2, “Composition containing polyamine transport inhibitor and use thereof” (MediQuest Therapeutics, Inc., priority 2001, dated 2008)
